Measured values published in PubChem BioAssay AID270 (DTP/NCI, 2004).
Where “and” joins values, the source holds several entries; their conditions need not be identical. Identical values can stand only once. Inconclusive results are not listed.

System: BDF1 mice, s.c. Lewis lung carcinoma, T/C %
Assay: NCI In Vivo Anticancer Drug Screen. Data for tumor model Lewis Lung Carcinoma (subcutaneous) in B6D2F1 (BDF1) mice
In short: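 Readout: survival or tumor size, expressed as treated (T) over vehicle control (C). Transplantable tumor implanted in mice; compound given to the treated group.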

[1] = endpoint: mean tumor weight, dose: 125.0 mg/kg/injection, schedule: Q01DX011 (ip), vehicle: saline, higher = larger tumour

O=C1NC2C(NC(=O)N2Cl)N1Cl (stereo not drawn)
T/C (endpoint: mean tumor weight, dose: 20.0 mg/kg/injection, schedule: Q01DX011 (ip), vehicle: saline, higher = larger tumour): 97 % of control | T/C (endpoint: mean tumor weight, dose: 40.0 mg/kg/injection, schedule: Q01DX011 (ip), vehicle: saline, higher = larger tumour): 114 % of control

CN1CC(=O)N=C1N
T/C (endpoint: mean tumor weight, dose: 31.3 mg/kg/injection, schedule: Q01DX011 (ip), vehicle: saline, higher = larger tumour): 116 % of control | T/C (endpoint: mean tumor weight, dose: 62.5 mg/kg/injection, schedule: Q01DX011 (ip), vehicle: saline, higher = larger tumour): 150 % of control | T/C [1]: 119 % of control | T/C (endpoint: mean tumor weight, dose: 250.0 mg/kg/injection, schedule: Q01DX011 (ip), vehicle: saline, higher = larger tumour): 105 % of control

CCCCn1cnc2c(=S)nc(N)[nH]c21
T/C (endpoint: mean tumor weight, dose: 1.0 mg/kg/injection, schedule: Q01DX011 (ip), vehicle: other, higher = larger tumour): 73 % of control | T/C (endpoint: mean tumor weight, dose: 2.0 mg/kg/injection, schedule: Q01DX011 (ip), vehicle: other, higher = larger tumour): 59 % of control | T/C (endpoint: mean tumor weight, dose: 4.0 mg/kg/injection, schedule: Q01DX011 (ip), vehicle: other, higher = larger tumour): 39 % of control | T/C (endpoint: mean tumor weight, dose: 8.0 mg/kg/injection, schedule: Q01DX011 (ip), vehicle: other, higher = larger tumour): 58 % of control and 63 % of control | T/C (endpoint: mean tumor weight, dose: 16.0 mg/kg/injection, schedule: Q01DX011 (ip), vehicle: other, higher = larger tumour): 61 % of control | T/C (endpoint: mean tumor weight, dose: 32.0 mg/kg/injection, schedule: Q01DX011 (ip), vehicle: other, higher = larger tumour): 34 % of control

CC1CCCCN1 (stereo not drawn)
T/C (endpoint: mean tumor weight, dose: 12.5 mg/kg/injection, schedule: Q01DX011 (ip), vehicle: saline, higher = larger tumour): 95 % of control | T/C (endpoint: mean tumor weight, dose: 25.0 mg/kg/injection, schedule: Q01DX011 (ip), vehicle: saline, higher = larger tumour): 85 % of control | T/C (endpoint: mean tumor weight, dose: 50.0 mg/kg/injection, schedule: Q01DX011 (ip), vehicle: saline, higher = larger tumour): 80 % of control

CCN(CC)CCN1C(=O)c2cccc3cccc(c23)C1=O
T/C (endpoint: mean tumor weight, dose: 48.0 mg/kg/injection, schedule: Q01DX011 (ip), vehicle: saline, higher = larger tumour): 111 % of control | T/C (endpoint: mean tumor weight, dose: 73.0 mg/kg/injection, schedule: Q01DX011 (ip), vehicle: saline, higher = larger tumour): 87 % of control | T/C (endpoint: mean tumor weight, dose: 110.0 mg/kg/injection, schedule: Q01DX011 (ip), vehicle: saline, higher = larger tumour): 69 % of control

O=C(O)C1(NO)CCCC1
T/C (endpoint: mean tumor weight, dose: 55.0 mg/kg/injection, schedule: Q01DX011 (ip), vehicle: saline, higher = larger tumour): 73 % of control | T/C (endpoint: mean tumor weight, dose: 83.0 mg/kg/injection, schedule: Q01DX011 (ip), vehicle: saline, higher = larger tumour): 29 % of control | T/C [1]: 27 % of control

FCCNC1CCCCC1
T/C (endpoint: mean tumor weight, dose: 1.5 mg/kg/injection, schedule: Q01DX011 (ip), vehicle: carboxymethylcellulose (CMC), higher = larger tumour): 99 % of control | T/C (endpoint: mean tumor weight, dose: 5.0 mg/kg/injection, schedule: Q01DX011 (ip), vehicle: carboxymethylcellulose (CMC), higher = larger tumour): 89 % of control | T/C (endpoint: mean tumor weight, dose: 7.5 mg/kg/injection, schedule: Q01DX011 (ip), vehicle: carboxymethylcellulose (CMC), higher = larger tumour): 68 % of control

O=NN(CCCl)C(=O)NC1CC2CCC1C2 (stereo not drawn)
T/C (endpoint: median survival time, dose: 10.0 mg/kg/injection, schedule: Q01DX001 (ip), vehicle: Klucel (hydroxypropylcellulose) (HPC), higher = longer survival): 102 % of control and 108 % of control | T/C (endpoint: median survival time, dose: 20.0 mg/kg/injection, schedule: Q01DX001 (ip), vehicle: Klucel (hydroxypropylcellulose) (HPC), higher = longer survival): 99 % of control and 102 % of control | T/C (endpoint: median survival time, dose: 40.0 mg/kg/injection, schedule: Q01DX001 (ip), vehicle: Klucel (hydroxypropylcellulose) (HPC), higher = longer survival): 106 % of control | T/C (endpoint: median survival time, dose: 80.0 mg/kg/injection, schedule: Q01DX001 (ip), vehicle: Klucel (hydroxypropylcellulose) (HPC), higher = longer survival): 260 % of control | T/C (endpoint: median survival time, dose: 160.0 mg/kg/injection, schedule: Q01DX001 (ip), vehicle: Klucel (hydroxypropylcellulose) (HPC), higher = longer survival): 117 % of control

CC1(C)N=C(N)N=C(N)N1c1cccc(Br)c1
T/C (endpoint: mean tumor weight, dose: 50.0 mg/kg/injection, schedule: Q01DX011 (ip), vehicle: other, higher = larger tumour): 16 % of control

O=NN(CCCl)C(=O)NC1CSCSC1
T/C (endpoint: median survival time, dose: 1.56 mg/kg/injection, schedule: Q01DX009 (ip), vehicle: saline with Tween-80, higher = longer survival): 106 % of control | T/C (endpoint: median survival time, dose: 3.12 mg/kg/injection, schedule: Q01DX009 (ip), vehicle: saline with Tween-80, higher = longer survival): 104 % of control | T/C (endpoint: median survival time, dose: 4.7 mg/kg/injection, schedule: Q04DX004 (ip), vehicle: saline with Tween-80, higher = longer survival): 95 % of control | T/C (endpoint: median survival time, dose: 5.0 mg/kg/injection, schedule: Q01DX001 (ip), vehicle: saline with Tween-80, higher = longer survival): 116 % of control | T/C (endpoint: median survival time, dose: 6.25 mg/kg/injection, schedule: Q01DX009 (ip), vehicle: saline with Tween-80, higher = longer survival): 96 % of control | T/C (endpoint: median survival time, dose: 7.0 mg/kg/injection, schedule: Q01DX001 (ip), vehicle: saline with Tween-80, higher = longer survival): 117 % of control | T/C (endpoint: median survival time, dose: 11.0 mg/kg/injection, schedule: Q04DX004 (ip), vehicle: saline with Tween-80, higher = longer survival): 112 % of control | T/C (endpoint: median survival time, dose: 12.5 mg/kg/injection, schedule: Q01DX009 (ip), vehicle: saline with Tween-80, higher = longer survival): 109 % of control | T/C (endpoint: median survival time, dose: 16.5 mg/kg/injection, schedule: Q04DX004 (ip), vehicle: saline with Tween-80, higher = longer survival): 71 % of control | T/C (endpoint: median survival time, dose: 23.0 mg/kg/injection, schedule: Q01DX001 (ip), vehicle: saline with Tween-80, higher = longer survival): 163 % of control | T/C (endpoint: median tumor weight (est.), dose: 7.3 mg/kg/injection, schedule: Q01DX001 (ip), vehicle: saline with Tween-80, higher = larger tumour): 97 % of control | T/C (endpoint: median tumor weight (est.), dose: 15.0 mg/kg/injection, schedule: Q01DX001 (ip), vehicle: saline with Tween-80, higher = larger tumour): 32 % of control and 40 % of control | T/C (endpoint: median tumor weight (est.), dose: 22.0 mg/kg/injection, schedule: Q01DX001 (ip), vehicle: saline with Tween-80, higher = larger tumour): 8 % of control
